Measured values taken from patent publication US20240217990A1 (Gilead Sciences, Inc., priority 2021, published 2024).

Assays:
TLR7 = molecular target: T1, TLR7 (Homo sapiens, UniProt Q9NYK1); assay: TLR7 human PBMC cell-based assay (antagonist, GS-986 stimulated cytokine release); conditions: human PBMCs; TLR7 agonist GS-986 400 nM, 6 hours; cytokines (IL-6 and IFNα) in supernatant; read-out: TLR-7 EC50
T1 construct: Human peripheral blood mononuclear cells (PBMCs) consist of lymphocytes, monocytes and dendritic cells that express TLR7, TLR8 and TLR9; endogenous in cells; host or cells: cryopreserved human PBMCs from healthy donors
T1 sequence (Q9NYK1 27-1049): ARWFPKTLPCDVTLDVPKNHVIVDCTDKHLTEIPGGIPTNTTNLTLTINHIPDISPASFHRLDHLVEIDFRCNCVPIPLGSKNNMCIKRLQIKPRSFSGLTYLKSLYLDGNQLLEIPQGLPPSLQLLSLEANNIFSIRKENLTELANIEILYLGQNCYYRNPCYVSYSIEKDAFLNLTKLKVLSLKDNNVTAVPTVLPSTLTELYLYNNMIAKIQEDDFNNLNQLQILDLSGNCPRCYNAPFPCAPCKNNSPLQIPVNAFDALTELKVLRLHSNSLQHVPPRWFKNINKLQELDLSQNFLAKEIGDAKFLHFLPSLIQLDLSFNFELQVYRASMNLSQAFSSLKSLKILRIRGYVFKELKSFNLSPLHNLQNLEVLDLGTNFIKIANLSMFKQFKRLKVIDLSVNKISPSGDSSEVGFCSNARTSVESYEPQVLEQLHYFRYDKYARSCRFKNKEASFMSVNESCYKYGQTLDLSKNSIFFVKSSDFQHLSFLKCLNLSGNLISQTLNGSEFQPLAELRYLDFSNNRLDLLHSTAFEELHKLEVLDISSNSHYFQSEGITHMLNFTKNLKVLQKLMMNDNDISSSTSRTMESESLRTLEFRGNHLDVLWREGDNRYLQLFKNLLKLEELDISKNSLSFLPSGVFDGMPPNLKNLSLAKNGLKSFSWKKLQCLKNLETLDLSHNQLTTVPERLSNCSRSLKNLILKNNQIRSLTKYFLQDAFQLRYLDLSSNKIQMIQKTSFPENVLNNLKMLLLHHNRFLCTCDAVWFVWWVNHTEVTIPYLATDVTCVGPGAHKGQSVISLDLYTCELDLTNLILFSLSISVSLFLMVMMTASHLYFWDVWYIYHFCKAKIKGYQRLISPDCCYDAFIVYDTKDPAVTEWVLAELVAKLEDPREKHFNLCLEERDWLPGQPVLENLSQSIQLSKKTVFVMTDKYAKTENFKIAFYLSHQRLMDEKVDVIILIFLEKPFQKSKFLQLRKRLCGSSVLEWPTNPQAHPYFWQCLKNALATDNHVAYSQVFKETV
Excerpt: (§1) Human peripheral blood mononuclear cells (PBMCs) consist of lymphocytes, monocytes and dendritic cells that express TLR7, TLR8 and TLR9. These cells respond to TLR7, TLR8 and TLR9 ligand stimulation and produce cytokines and chemokines in vitro and in vivo. Human PBMCs are therefore suitable to be used in a cell-based assay to assess the in vitro potency of a TLR 7, 8, and/or 9 antagonist. The result is expected to be more translatable to the pharmacodynamics response in vivo than cell line-based assays.
Cryopreserved human PBMCs from healthy donors were thawed and resuspended in RPMI-1640 media with L-glutamine (Corning) supplemented with 10% Fetal Bovine Serum (Hyclone) and 1× Penicillin-Streptomycin (Corning). After counting, the cell density was adjusted to 2 million cells/ml and incubated for 1 hour at 37° C., 5% CO2 for recovery. Following the recovery, the cells were plated by adding 50 μl per well (100,000 cells) to 384-well cell culture plates (Greiner) containing 250 nl of test antagonists in 100% DMSO per well, in a 10 points dose response in quadruplicates. PBMCs were incubated in the presence of test antagonists for one hour at 37° C., 5% CO2 before being stimulated with a TLR7 or TLR9agonist. GS-986 (Gilead Sciences) was used as the TLR7 agonist at a final concentration of 400 nM. ODN-2216 (InvivoGen) was used as the TLR9 agonist at a final concentration of 3 μM. PBMCs were incubated in the presence of the test antagonist and the TLR7 (or TLR9) agonist for an additional 6 hours at 37° C., 5% CO2. At the end of the incubation, the cell culture plates were centrifuged at 500 g for 5 min, and the cell culture supernatant was collected. The level of cytokines (IL-6 and IFNα) in the supernatant was measured by electrochemiluminescence immunoassays (Mesoscale Discovery) following manufacturer's recommended protocols. The level of cytokine measured was plotted against the test antagonist concentration and fitted to a sigmoidal function to determine the EC50, which are shown below in Table 11.

TLR8 = molecular target: T2, TLR8 (Homo sapiens, UniProt Q9NR97); assay: TLR8 human PBMC cell-based assay (antagonist, Compound A stimulated cytokine release); conditions: human PBMCs; TLR8 agonist Compound A 800 nM, 6 hours; cytokines (TNFa and IL 12p40) in supernatant; read-out: TLR-8 EC50
T2 construct: Human peripheral blood mononuclear cells (PBMCs) consist of lymphocytes, monocytes and dendritic cells that express TLR7, TLR8 and TLR9; endogenous in cells; host or cells: cryopreserved human PBMCs from healthy donors
T2 sequence (Q9NR97 27-1041): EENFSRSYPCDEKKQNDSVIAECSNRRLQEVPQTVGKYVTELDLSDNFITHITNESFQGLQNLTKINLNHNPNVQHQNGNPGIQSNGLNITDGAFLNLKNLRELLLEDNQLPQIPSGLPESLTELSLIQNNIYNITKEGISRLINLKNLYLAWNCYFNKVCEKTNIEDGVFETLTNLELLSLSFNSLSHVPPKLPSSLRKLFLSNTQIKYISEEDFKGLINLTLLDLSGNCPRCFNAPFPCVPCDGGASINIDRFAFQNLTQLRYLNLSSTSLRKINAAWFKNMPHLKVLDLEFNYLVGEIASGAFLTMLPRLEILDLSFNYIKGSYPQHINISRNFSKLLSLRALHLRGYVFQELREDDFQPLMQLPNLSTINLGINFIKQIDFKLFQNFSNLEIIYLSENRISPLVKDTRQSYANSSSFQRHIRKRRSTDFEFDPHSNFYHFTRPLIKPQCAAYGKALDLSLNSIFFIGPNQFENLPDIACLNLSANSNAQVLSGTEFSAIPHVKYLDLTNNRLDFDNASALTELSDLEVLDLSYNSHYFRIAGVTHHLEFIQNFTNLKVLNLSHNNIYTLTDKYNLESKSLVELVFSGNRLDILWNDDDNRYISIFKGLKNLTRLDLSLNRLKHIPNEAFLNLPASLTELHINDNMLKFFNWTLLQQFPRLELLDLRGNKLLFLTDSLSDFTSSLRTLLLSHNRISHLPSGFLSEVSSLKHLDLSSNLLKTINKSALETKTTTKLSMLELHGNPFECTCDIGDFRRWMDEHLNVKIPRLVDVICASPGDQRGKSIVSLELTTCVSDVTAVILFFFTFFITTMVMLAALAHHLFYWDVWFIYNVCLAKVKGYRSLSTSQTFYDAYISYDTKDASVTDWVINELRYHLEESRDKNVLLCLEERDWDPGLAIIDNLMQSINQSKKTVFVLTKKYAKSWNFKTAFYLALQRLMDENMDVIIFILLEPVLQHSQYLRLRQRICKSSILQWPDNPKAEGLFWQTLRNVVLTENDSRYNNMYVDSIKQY
Excerpt: as §1
Cryopreserved human PBMCs from healthy donors were thawed and resuspended in RPMI-1640 media with L-glutamine (Corning) supplemented with 10% Fetal Bovine Serum (Hyclone) and 1X Penicillin-Streptomycin (Corning). After counting, the cell density was adjusted to 2 million cells/ml and incubated for 1 hour at 37° C., 5% CO2 for recovery. Following the recovery, the cells were plated by adding 50 μl per well (100,000 cells) to 384-well cell culture plates (Greiner) containing 250 nl of test antagonists in 100% DMSO per well, in a 10 points dose response in quadruplicates. PBMCs were incubated in the presence of antagonists for one hour at 37° C., 5% CO2 before being stimulated with TLR8 agonist. Compound A (Gilead Sciences, U.S. Pat. No. 10,285,990) was used as the TLR8 agonist at a final concentration of 800 nM. PBMCs were incubated in the presence of antagonist and the TLR8 agonist for an additional 6 hours at 37° C., 5% CO2. At the end of the incubation, the cell culture plates were centrifuged at 500 g for 5 min, and the cell culture supernatant was collected. The level of cytokines (TNFa and IL 12p40) in the supernatant was measured by electrochemiluminescence immunoassays (Mesoscale Discovery) following manufacturer's recommended protocols. The level of cytokine measured was plotted against the antagonist concentration and fitted to a sigmoidal function to determine the EC50, which are shown below in Table 11.

Row | EC50 (TLR7) | EC50 (TLR8) | SMILES
1 | 0.14 nM | 1.19 nM | Cc1cc(-c2[nH]c3cc(C4CCC5(C4)CN(CC(N)=O)C5)sc3c2C(C)C)cn2ncnc12 (racemic) [Example 295, 2-(6-(6-Isopropyl-5-(8-methyl-[1,2,4]triazolo[1,5-a]pyridin-6-yl)-4H-thieno[3,2-b]pyrrol-2-yl)-2-azaspiro[3.4]octan-2-yl)acetamide]
2 | 0.18 nM | 1.36 nM | Cc1cc(-c2[nH]c3cc(C4CCC5(C4)CN(CC(N)=O)C5)sc3c2C(C)C)cn2ncnc12 (single isomer, unassigned) [Example 310, 2-(6-(6-Isopropyl-5-(8-methyl-[1,2,4]triazolo[1,5-a]pyridin-6-yl)-4H-thieno[3,2-b]pyrrol-2-yl)-2-azaspiro[3.4]octan-2-yl)acetamide]
3 | 0.57 nM | 1.82 nM | Cc1cc(-c2[nH]c3cc(C4CCC5(C4)CN(CC(N)=O)C5)sc3c2C(C)C)cn2ncnc12 (single isomer, unassigned) [Example 311, 2-(6-(6-Isopropyl-5-(8-methyl-[1,2,4]triazolo[1,5-a]pyridin-6-yl)-4H-thieno[3,2-b]pyrrol-2-yl)-2-azaspiro[3.4]octan-2-yl)acetamide]
4 | 24.8 nM | 19.8 nM | Cc1cc(-c2[nH]c3cc(C(=O)N4CCNCC4)sc3c2C(C)C)cc(C)n1 [Example 1, [5-(2,6-dimethyl-4-pyridyl)-6-isopropyl-4H-thieno[3,2-b]pyrrol-2-yl]-piperazin-1-yl-methanone]
5 | 37.5 nM | 31.7 nM | Cc1cc(-c2[nH]c3cc(C(=O)N4CCC(N)CC4)sc3c2C(C)C)cc(C)n1 [Example 2]
6 | 592 nM | 588 nM | Cc1cc(-c2[nH]c3cc(C(=O)NC4CCNCC4)sc3c2C(C)C)cc(C)n1 [Example 4]
7 | > 1000 nM | 654 nM | Cc1cc(-c2[nH]c3cc(C(=O)N[C@@H]4CCNC4)sc3c2C(C)C)cc(C)n1 [Example 5]
8 | 895 nM | > 1000 nM | Cc1cc(-c2[nH]c3cc(C(=O)N[C@H]4CCNC4)sc3c2C(C)C)cc(C)n1 [Example 6]
9 | 110 nM | 35 nM | Cc1cc(-c2[nH]c3cc(C(=O)N4CC[C@H](N)C4)sc3c2C(C)C)cc(C)n1 [Example 7]
10 | 67.7 nM | 27.2 nM | Cc1cc(-c2[nH]c3cc(C(=O)N4CC[C@@H](N)C4)sc3c2C(C)C)cc(C)n1 [Example 8]
11 | 636 nM | 374 nM | Cc1cc(-c2[nH]c3cc(C(=O)N4CCNC(C#N)C4)sc3c2C(C)C)cc(C)n1 (centres unmarked) [Example 9]
12 | 18.3 nM | 55.4 nM | Cc1cc(-c2[nH]c3cc(C(=O)N(C)C4CCNCC4)sc3c2C(C)C)cc(C)n1 [Example 10]
13 | 28.7 nM | 105 nM | Cc1cc(-c2[nH]c3cc(C(=O)N4CCC[C@H](N)C4)sc3c2C(C)C)cc(C)n1 [Example 11]
14 | 42.2 nM | 66.6 nM | Cc1cc(-c2[nH]c3cc(C(=O)N4CCC[C@@H](N)C4)sc3c2C(C)C)cc(C)n1 [Example 12]
15 | 45.7 nM | 27.2 nM | Cc1cc(-c2[nH]c3cc(C(=O)N4CCCNCC4)sc3c2C(C)C)cc(C)n1 [Example 13]
16 | 311 nM | 586 nM | Cc1cc(-c2[nH]c3cc(C(=O)N4CCC5(CCNC5)C4)sc3c2C(C)C)cc(C)n1 (centres unmarked) [Example 14]
17 | 60 nM | 72.9 nM | Cc1cc(-c2[nH]c3cc(C(=O)N4C5CNCC4COC5)sc3c2C(C)C)cc(C)n1 [Example 15]
18 | 103 nM | – | Cc1cc(-c2[nH]c3cc(C(=O)N4CC[C@H](F)[C@@H](N)C4)sc3c2C(C)C)cc(C)n1 [Example 26]
19 | 11.1 nM | – | Cc1cc(-c2[nH]c3cc(C(=O)N4CCC[C@H](N)[C@@H]4C)sc3c2C(C)C)cc(C)n1 [Example 33]
20 | 240 nM | – | Cc1cc(-c2[nH]c3cc(C(=O)N4CC[C@H](N)C4)sc3c2C(C)C)cn(C)c1=O [Example 35]
21 | 10.3 nM | – | Cc1cc(-c2[nH]c3cc(C(=O)N(C)C4CCNCC4(C)C)sc3c2C(C)C)cc(C)n1 (centres unmarked) [Example 37]
22 | 682 nM | – | Cc1cc(-c2[nH]c3cc(C(=O)N4CCN5CCOC[C@H]5C4)sc3c2C(C)C)cc(C)n1 [Example 41]
23 | 489 nM | – | Cc1cc(-c2[nH]c3cc(C(=O)N4CCN5CCOC[C@@H]5C4)sc3c2C(C)C)cc(C)n1 [Example 42]
24 | – | 10.5 nM | Cc1cc(-c2[nH]c3cc(C4CCC5(CCNC5)C4)sc3c2C(C)C)cn2ncnc12 (centres unmarked) [Example 278]
